According to PMC6222509, “Dibasic Derivatives of Phenylcarbamic Acid against Mycobacterial Strains: Old Drugs and New Tricks?” (Molecules : A Journal of Synthetic Chemistry and Natural …, 2018):
Converted amounts (≈) assume the structure as drawn. Like-named read-outs stand apart in the source and are kept apart here.

Experiments:
[1] = electronic properties, UV/Vis spectrophotometry of methanolic solutions; format: physicochemical; conditions: methanolic solution c = 8.0 × 10^−5 M; for log ε2 (Ch-T): charge-transfer maximum λ2 (Ch-T) = 236–238 nm; for log ε1: λ1 = 208–210 nm; for log ε3: λ3 = 278–280 nm
Description: Electronic properties of the molecules 1a–p (Table 1) were characterized by logarithms of molar absorption coefficients (log ε) of their methanolic solutions (c = 8.0 × 10^−5 M) investigated in the UV/Vis region of an electromagnetic spectrum.
Positions of these absorption bands in the spectrum were typical for derivatives of (substituted) phenylcarbamic acid and the bands were assigned as first local excitation (λ3), charge-transfer (λ2 (Ch-T)) and second local excitation (λ1) absorption maxima, respectively. The λ1 and λ2 (Ch-T) maxima of 2-alkoxy substituted compounds 1a–d and 1i–l were slightly lower compared to those of their 3-alkoxy substituted positional isomers 1e–h and 1m–p (Table 1), respectively.
The UV/Vis spectra of methanolic solutions of analyzed compounds 1a–p (c = 8.0 × 10^−5 M) were observed on the 8452A Diode Array spectrophotometer HP-8452A (Hewlett-Packard, Palo Alto, CA, USA) at 21 °C. Methanol for UV-spectroscopy (Merck, Darmstadt, Germany) was used for preparation of these solutions. Results of the UV/Vis analyses were collected and stored digitally using the ChemStation controller software (Agilent Technologies, Waldbronn, Germany). The HP-8452A apparatus measured a complete range of compounds’ spectrum from 190 nm to 820 nm.
The log ε values for presently observed absorption maxima were calculated following the Lambert-Beer’s law, which was discussed in [35], for example, and expressed by Equation (16):A = ε × c × l(16) where the A parameter represented absorbance of a compound’s solution, the ε descriptor was a molar absorption coefficient (in L/mol/cm units) and l was path length (in cm units).

[2] = surface tension, drop count method, Traube stalagmometer; format: physicochemical; conditions: aqueous solution c = 2.0 × 10^−3 M, 21 °C; water γ = 0.07259 N/m
Experimental: Surface tension (relative surface activity; γ) of aqueous solutions of the compounds 1a–p (c = 2.0 × 10^−3 M) was determined by a drop count technique using a Traube stalagmometer. All evaluated substances were able to decrease surface tension of water (γ = 0.07259 N/m) at 21 °C.
Surface tension (relative surface activity; γ) of the derivatives 1a–p was determined by a drop count method using a glassy Traube stalagmometer (Kavalier Glass, Prague, Czech Republic). Number of drops of compounds’ and reference solutions were counted between upper and lower marks of the stalagmometer. Aqueous solutions of the molecules 1a–p were prepared with distilled, deionized water (c = 2.0 × 10^−3 M). […] The drops were allowed to form at constant temperature 21 °C. The experimental procedure was described in a paper. Current measurements were done in six replicates and average γ values (in N/m units) were reported (Table 1).

[3] = lipophilicity by isocratic RP-HPLC (log k, k, log kw, S); format: physicochemical; conditions: for log kw: extrapolated to 100% water from log k versus ϕM; for S (slope): slope of log k versus ϕM regression
Description: Octadecyl-functionalized silica gel was currently used as a stationary phase (SPh) and a […] of two solvents at different volume ratios modified retention properties of the SPh. Liquid binary mixtures of methanol (MeOH) with water were employed as mobile phases (MPhs) in the isocratic RP-HPLC. The MeOH modifier was preferred because of similarity of both observed and extrapolated lipophilicity parameters with the ones determined in the octan-1-ol/water partition system, considering also sensitivity to H-bond donor properties of investigated compounds [41].
The modifier was applied in different volume concentrations, which varied from […] (v/v) with 5% increments. This interval was chosen due to very high lipophilicity of investigated salts. Practically, lower volume concentration of MeOH, i.e., less than 85% (v/v) in used MPhs, caused uncertainty of retention times (tr) due to notable peaks broadening, especially within subsets 1i–l and 1m–p. […] The highest tr parameters were found for the molecules 1k (tr = 47.108 min) and 1l (tr = 70.012 min) in the MPh containing 85% proportion (v/v) of MeOH (Table 2).
According to the authors’ opinions based on systematic scientific literature survey, a current research paper was the first, which aimed the log kw parameters of 2-/3-alkoxyphenylcarbamic acid derivatives containing two centers of protonation. The log kw values were extrapolated from intercepts of a relationship between log k and volume fraction of the MPh modifier (ϕM) using the Snyder–Soczewiński linear solvent strength model. The relationship was justified by R > 0.9900, Adj. R^2 > 0.9750 as well as F > 180.00 for calculation of particular log kw parameters (Table 3).
The HPLC separation module Waters e2695 equipped with a Waters 2996 PDA Detector (Waters Corp., Milford, MA, USA) and chromatographic column Symmetry C18 × 5 μm, 4.6 × 250 mm, Part No. W21751W016 (Waters Corp.) were used for estimation of lipophilic properties of the compounds 1a–p at 21 °C.
Isocratic elution was carried out using mobile phases consisting of methanol p.a. (MeOH; Honeywell, Paris, France) and purified water in various volume ratios (80:20, 85:15, 90:10, 95:5 (v/v) and pure MeOH, respectively). Distilled water (CentralChem, Bratislava, Slovak Republic) was purified by the Aquinity2 P10 ultra-pure water system for production of ultra-pure water with an integrated 10 L permeate tank (membraPure, Hennigsdorf, Germany).
Total flow of the column was 1.0 mL/min, injection volume was 4 μL and column temperature was set to 40 °C. The detection wavelengths varying from 236 nm to 238 nm were chosen for current experimental procedures.
Lipophilicity of the compounds 1a–p was determined by reversed-phase high-performance liquid chromatography (RP-HPLC). Methanol (MeOH)/water mobile phases with varying volume ratio of the organic modifier and water (80:20, 85:15, 90:10, 95:5 (v/v) and pure MeOH, respectively) were chosen.
A methanolic solution of potassium iodine was used for dead time (td) determination. Retention factors (capacity factors; k) were calculated according to Equation (17):k = (tr− td)/td(17) where tr was retention time of a solute (in min), the td parameter denoted dead time of potassium iodine, an unretained analyte (in min).
The observed retention (tr) and dead (td) times were means of three independent determinations. Average td values of potassium iodine in used MPhs were as follows: 2.237 min (MeOH/water ratio (v/v) was 80:20), 2.245 min (85:15), 2.245 min (90:10), 2.228 min (95:5) and 2.210 min (pure MeOH), respectively. […]

[4] = test system: M. kansasii DSM 44162 (MK DSM); assay: in vitro antimycobacterial MIC, broth dilution micromethod in Middlebrook 7H9; format: cell-based; conditions: Mycobacterium kansasii, DSM 44162 / DSM 7, 168 h
[5] = mobile phase MeOH/water 80:20 (v/v)
[6] = mobile phase MeOH/water 85:15 (v/v)
[7] = mobile phase MeOH/water 90:10 (v/v)
[8] = mobile phase MeOH/water 95:5 (v/v)
[9] = read-out: MIC MK DSM 7-d, 7-day cultivation, 37 °C
[10] = 7-day cultivation, 37 °C, read-out: MIC MK DSM 7-d

| Compound | log ε2 (Ch-T) [1] | log ε1 [1] | log ε3 [1] | surface tension γ (relative surface activity) [2] | log kw [3] | k (retention factor) [3, 5] | log k [3, 5] | k (retention factor) [3, 6] | log k [3, 6] | k (retention factor) [3, 7] | log k [3, 7] | k (retention factor) [3, 8] | log k [3, 8] | k (retention factor) ([3]; mobile phase pure MeOH) | log k ([3]; mobile phase pure MeOH) | S (slope) [3] | MIC [4, 9] | MIC [4, 10] |
| --- | --- | --- | --- | --- | --- | --- | --- | --- | --- | --- | --- | --- | --- | --- | --- | --- | --- | --- |
| CCCCCCCOc1cccc(NC(=O)OC(CN(CCC)CCC)CN2CCCC2)c1.Cl.Cl (centres unmarked) [1h, 1-[2-[({[3-(heptyloxy)phenyl]amino}carbonyl)oxy]-3-(dipropylammonio)propyl]pyrrolidinium dichloride] | 4.27 | 4.66 | 3.63 | 0.05786 N/m | 5.5384 | 8.9557 | 0.9521 | 5.1988 | 0.7159 | 2.8609 | 0.4565 | 1.6188 | 0.2092 | 0.6091 | −0.2153 | 5.6830 | 1.9 µM | – |
| CCCCOc1ccccc1NC(=O)OC(CN(CCC)CCC)CN1CCCCCC1 (centres unmarked) [1i] | 4.08 | 4.44 | 3.57 | 0.06302 N/m | 4.4679 | 9.7297 | 0.9881 | 6.5358 | 0.8153 | 4.2073 | 0.6240 | 2.4854 | 0.3954 | 1.3198 | 0.1205 | 4.3102 | – | 51 µM (≈ 22.8 µg/mL) |
| CCCCCOc1ccccc1NC(=O)OC(CN(CCC)CCC)CN1CCCCCC1.O=C(O)C(=O)O (centres unmarked) [1j, 1-[2-[({[2-(Pentyloxy)phenyl]amino}carbonyl)oxy]-3-(dipropylammonio)propyl]-azepanium oxalate] | 4.22 | 4.54 | 3.71 | 0.06206 N/m | 4.8466 | 12.1983 | 1.0863 | 7.9086 | 0.8981 | 4.8173 | 0.6828 | 2.8242 | 0.4509 | 1.3960 | 0.1449 | 4.6600 | 50 µM | – |
| CCCCCCOc1ccccc1NC(=O)OC(CN(CCC)CCC)CN1CCCCCC1 (centres unmarked) [1k] | 4.10 | 4.42 | 3.57 | 0.06065 N/m | 5.2359 | 20.0586 | 1.3023 | 11.0255 | 1.0424 | 6.3650 | 0.8038 | 3.3274 | 0.5221 | 2.1394 | 0.3303 | 4.9286 | – | 98 µM (≈ 46.6 µg/mL) |
| CCCCCCCOc1cccc(NC(=O)OC(CN(CCC)CCC)CN2CCCCCC2)c1.O=C(O)C(=O)O (centres unmarked) [1l, 1-[2-[({[3-(hept-yloxy)phenyl]amino}carbonyl)oxy]-3-(dipropylammonio)propyl]azepanium oxalate] | 4.14 | 4.44 | 3.59 | 0.05853 N/m | 5.8966 | 30.4159 | 1.4831 | 16.4135 | 1.2152 | 9.1601 | 0.9619 | 4.2374 | 0.6271 | 2.5096 | 0.3996 | 5.5102 | – | 382 µM |
| CCCCOc1cccc(NC(=O)OC(CN(CCC)CCC)CN2CCCCCC2)c1 (centres unmarked) [1m] | 4.09 | 4.52 | 3.44 | 0.06298 N/m | 4.7099 | 6.0325 | 0.7805 | 3.1060 | 0.4922 | 1.8599 | 0.2695 | 1.1026 | 0.0424 | 0.5922 | −0.2275 | 4.9316 | – | 7.7 µM (≈ 3.45 µg/mL) |
| CCCCCOc1cccc(NC(=O)OC(CN(CCC)CCC)CN2CCCCCC2)c1.Cl.Cl (centres unmarked) [1n, 1-[2-[({[3-(pentyloxy)phenyl]amino}carbonyl)oxy]-3-(di-propylammonio)propyl]azepanium dichloride] | 4.18 | 4.56 | 3.52 | 0.06154 N/m | 5.2087 | 8.9166 | 0.9502 | 4.5102 | 0.6542 | 2.6333 | 0.4205 | 1.2419 | 0.0941 | 0.7858 | −0.1047 | 5.3398 | 7.5 µM | – |
